Test system: 5-α reductase enzyme
Test: Inhibition of 5-α reductase activity: conversion of [4-14C]testosterone to DHT by normal human dermal fibroblasts (NHDF)
Type: cell-based

| Structure (SMILES) | 5-α reductase enzyme activity (reduced to) (75 μM test compound, 24 h pre-incubation then 24 h with radiolabelled testosterone, DHT quantified by TLC/phosphorImager) [%] | inhibition of 5-α reductase activity (in words) (dose-effect observed, FIG. 1) | testosterone metabolisation to DHT / 5-α reductase activity (in words) (positive control tested at 10 μM) |
| --- | --- | --- | --- |
| CCCCCCCCCCCC(=O)OCC(O)CO (stereo not drawn) [2,3-dihydroxypropyl dodecanoate] | 66 | inhibition of 5-α reductase activity is also observed | – |
| CC(C)(C)NC(=O)[C@H]1CC[C@H]2[C@@H]3CC[C@H]4NC(=O)C=C[C@]4(C)[C@H]3CC[C@]12C [finasteride, reference compound] | – | – | lowers testosterone metabolisation to DHT significantly |
